Assay results reported in ChEMBL document CHEMBL1201862, “PubChem BioAssay data set” (2004).
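The compound was tested at five concentrations on cells cultured in 96-well plates, with a 48-hour exposure period. Abbreviation: GI50, concentration required for 50% inhibition of growth.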 Calls of active or inactive are those of the source. No stated cut-off is given here; in the data, active = GI50 up to about 1.1 µM and inactive = higher.

Tests used:
Experiment in all cases: DTP human tumour cell line panel, 48 h
[1] = system: Malme-3M
[2] = system: CAKI-1
[3] = system: BT-549
[4] = system: SK-MEL-28
[5] = system: NCI-H460
[6] = system: U-251
[7] = system: Hs-578T
[8] = system: SW-620
[9] = system: HT-29
[10] = system: SN12C
[11] = system: HOP-92
[12] = system: HL-60
[13] = system: HCT-15
[14] = system: NCI-H23
[15] = system: OVCAR-5
[16] = system: RPMI-8226
[17] = system: OVCAR-8
[18] = system: OVCAR-3
[19] = system: HOP-62
[20] = system: MCF7
[21] = system: SF-268
[22] = system: M14
[23] = system: A498
[24] = system: EKVX
[25] = system: OVCAR-4
[26] = system: SK-MEL-5
[27] = system: T47D
[28] = system: IGROV-1
[29] = system: SNB-75
[30] = system: MDA-MB-435
[31] = system: DU-145
[32] = system: SK-MEL-2
[33] = system: HCT-116
[34] = system: SF-539
[35] = system: LOX IMVI
[36] = system: SK-OV-3
[37] = system: A549
[38] = system: SF-295
[39] = system: ACHN
[40] = system: SNB-19
[41] = system: SR
[42] = system: MDA-N
[43] = system: UACC-257
[44] = system: CCRF-CEM
[45] = system: TK-10
[46] = system: 786-0
[47] = system: KM12
[48] = system: MDA-MB-231
[49] = system: K562
[50] = system: RXF 393
[51] = system: COLO 205
[52] = system: NCI/ADR-RES
[53] = system: PC-3
[54] = system: NCI-H226
[55] = system: MOLT-4
[56] = system: UO-31
[57] = system: NCI-H522
[58] = system: UACC-62
[59] = system: HCC 2998

## CN(C)c1ccc(/C=N/c2ccc(-c3nc4ccccc4[nH]3)cc2)cc1
[1]
  GI50: 24.3 µM (inactive)
[2]
  GI50: > 100 µM (inactive)
[3]
  GI50: 19.3 µM (inactive)
[4]
  GI50: > 100 µM (inactive)
[5]
  GI50: 51.8 µM (inactive)
[6]
  GI50: 39.2 µM (inactive)
[7]
  GI50: 63 µM (inactive)
[8]
  GI50: 32.4 µM (inactive)
[9]
  GI50: 39.5 µM (inactive)
[10]
  GI50: 40.6 µM (inactive)
[11]
  GI50: > 100 µM (inactive)
[12]
  GI50: 24.7 µM (inactive)
[13]
  GI50: 24.6 µM
[14]
  GI50: > 100 µM (inactive)
[15]
  GI50: > 100 µM (inactive)
[16]
  GI50: 36.1 µM (inactive)
[17]
  GI50: > 100 µM (inactive)
[18]
  GI50: 71.1 µM (inactive)
[19]
  GI50: > 100 µM (inactive)
[20]
  GI50: 46.9 µM (inactive)
[21]
  GI50: 60 µM (inactive)
[22]
  GI50: > 100 µM (inactive)
[23]
  GI50: 69.5 µM (inactive)
[24]
  GI50: > 100 µM (inactive)
[25]
  GI50: 35.9 µM (inactive)
[26]
  GI50: 56.9 µM (inactive)
[27]
  GI50: 31.3 µM (inactive)
[28]
  GI50: 47.1 µM (inactive)
[29]
  GI50: 33.7 µM (inactive)
[30]
  GI50: > 100 µM (inactive)
[31]
  GI50: 65.8 µM (inactive)
[32]
  GI50: > 100 µM (inactive)
[33]
  GI50: 43.6 µM (inactive)
[34]
  GI50: 90.4 µM (inactive)
[35]
  GI50: 51.5 µM (inactive)
[36]
  GI50: > 100 µM (inactive)
[37]
  GI50: > 100 µM (inactive)
[38]
  GI50: 46.6 µM (inactive)
[39]
  GI50: 59.3 µM (inactive)
[40]
  GI50: 40 µM (inactive)
[41]
  GI50: 12.9 µM (inactive)
[42]
  GI50: > 100 µM (inactive)
[43]
  GI50: > 100 µM (inactive)
[44]
  GI50: 37.7 µM (inactive)
[45]
  GI50: > 100 µM (inactive)
[46]
  GI50: 74.8 µM (inactive)
[47]
  GI50: 32.5 µM (inactive)
[48]
  GI50: 32.8 µM (inactive)
[49]
  GI50: 35 µM (inactive)
[50]
  GI50: 24.2 µM (inactive)
[51]
  GI50: 60.8 µM (inactive)
[52]
  GI50: 1.09 µM (active)
[53]
  GI50: 53.6 µM (inactive)
[54]
  GI50: > 100 µM (inactive)
[55]
  GI50: 25.7 µM (inactive)
[56]
  GI50: 56.4 µM (inactive)
[57]
  GI50: 56 µM (inactive)

## NC(=O)c1ncn2c(=O)n(CCl)nnc12
[1]
  GI50: > 100 µM (inactive)
[2]
  GI50: > 100 µM (inactive)
[3]
  GI50: > 100 µM (inactive)
[4]
  GI50: > 100 µM (inactive)
[5]
  GI50: 51.6 µM (inactive)
[6]
  GI50: > 100 µM (inactive)
[7]
  GI50: > 100 µM (inactive)
[8]
  GI50: 42 µM (inactive)
[9]
  GI50: 43.2 µM (inactive)
[10]
  GI50: > 100 µM (inactive)
[11]
  GI50: > 100 µM (inactive)
[13]
  GI50: 41.4 µM
[14]
  GI50: > 100 µM (inactive)
[15]
  GI50: > 100 µM (inactive)
[16]
  GI50: 24.3 µM (inactive)
[17]
  GI50: 97.1 µM (inactive)
[58]
  GI50: 76 µM (inactive)
[18]
  GI50: > 100 µM (inactive)
[19]
  GI50: > 100 µM (inactive)
[20]
  GI50: 49.3 µM (inactive)
[21]
  GI50: > 100 µM (inactive)
[22]
  GI50: > 100 µM (inactive)
[23]
  GI50: > 100 µM (inactive)
[24]
  GI50: > 100 µM (inactive)
[25]
  GI50: > 100 µM (inactive)
[26]
  GI50: > 100 µM (inactive)
[27]
  GI50: 94.2 µM (inactive)
[28]
  GI50: > 100 µM (inactive)
[29]
  GI50: > 100 µM (inactive)
[30]
  GI50: > 100 µM (inactive)
[31]
  GI50: > 100 µM (inactive)
[32]
  GI50: > 100 µM (inactive)
[33]
  GI50: 28.2 µM (inactive)
[34]
  GI50: 72.8 µM (inactive)
[35]
  GI50: 15.8 µM (inactive)
[36]
  GI50: 83 µM (inactive)
[37]
  GI50: > 100 µM (inactive)
[38]
  GI50: > 100 µM (inactive)
[39]
  GI50: 47.9 µM (inactive)
[40]
  GI50: > 100 µM (inactive)
[41]
  GI50: 15.4 µM (inactive)
[42]
  GI50: > 100 µM (inactive)
[43]
  GI50: > 100 µM (inactive)
[44]
  GI50: 22.4 µM (inactive)
[45]
  GI50: 63.1 µM (inactive)
[46]
  GI50: 85.9 µM (inactive)
[47]
  GI50: > 100 µM (inactive)
[48]
  GI50: > 100 µM (inactive)
[49]
  GI50: 72.6 µM (inactive)
[59]
  GI50: > 100 µM (inactive)
[50]
  GI50: > 100 µM (inactive)
[51]
  GI50: 50.2 µM (inactive)
[52]
  GI50: 48.9 µM (inactive)
[53]
  GI50: > 100 µM (inactive)
[54]
  GI50: > 100 µM (inactive)
[55]
  GI50: > 100 µM (inactive)
[56]
  GI50: > 100 µM (inactive)
[57]
  GI50: 96.8 µM (inactive)

## O=c1c(O)c(-c2cc(O)c(O)c(O)c2)oc2cc(O)cc(O)c12 [MYRICETIN]
[1]
  GI50: > 100 µM (inactive)
[2]
  GI50: 23.6 µM (inactive)
[3]
  GI50: 32.6 µM (inactive)
[4]
  GI50: > 100 µM (inactive)
[5]
  GI50: 20.4 µM (inactive)
[6]
  GI50: 18.7 µM (inactive)
[7]
  GI50: 40.9 µM (inactive)
[8]
  GI50: 19.5 µM (inactive)
[9]
  GI50: 20.3 µM (inactive)
[11]
  GI50: 46.7 µM (inactive)
[12]
  GI50: 56.6 µM (inactive)
[13]
  GI50: 24.8 µM
[14]
  GI50: 18.4 µM (inactive)
[15]
  GI50: 84.1 µM (inactive)
[16]
  GI50: 36.1 µM (inactive)
[17]
  GI50: 17.9 µM (inactive)
[58]
  GI50: 39.5 µM (inactive)
[18]
  GI50: 30.6 µM (inactive)
[19]
  GI50: 20.3 µM (inactive)
[20]
  GI50: 18.5 µM (inactive)
[21]
  GI50: 44.2 µM (inactive)
[22]
  GI50: 32.1 µM (inactive)
[23]
  GI50: > 100 µM (inactive)
[25]
  GI50: 16.3 µM (inactive)
[26]
  GI50: 31.5 µM (inactive)
[27]
  GI50: > 100 µM (inactive)
[28]
  GI50: 33.9 µM (inactive)
[29]
  GI50: 64.4 µM (inactive)
[30]
  GI50: 17.7 µM (inactive)
[31]
  GI50: > 100 µM (inactive)
[32]
  GI50: > 100 µM (inactive)
[34]
  GI50: > 100 µM (inactive)
[35]
  GI50: 13.6 µM (inactive)
[36]
  GI50: > 100 µM (inactive)
[37]
  GI50: 33.8 µM (inactive)
[38]
  GI50: 20.3 µM (inactive)
[39]
  GI50: 79.8 µM (inactive)
[41]
  GI50: 40.7 µM (inactive)
[42]
  GI50: 10 µM (inactive)
[43]
  GI50: 29.2 µM (inactive)
[44]
  GI50: 64.6 µM (inactive)
[45]
  GI50: > 100 µM (inactive)
[46]
  GI50: 20.1 µM (inactive)
[47]
  GI50: 17.7 µM (inactive)
[48]
  GI50: 18.1 µM (inactive)
[49]
  GI50: 35.6 µM (inactive)
[50]
  GI50: 20.8 µM (inactive)
[51]
  GI50: 65.9 µM (inactive)
[52]
  GI50: 22.4 µM (inactive)
[53]
  GI50: > 100 µM (inactive)
[54]
  GI50: 25.6 µM (inactive)
[55]
  GI50: 54.6 µM (inactive)
[56]
  GI50: 90.8 µM (inactive)
[57]
  GI50: 68.1 µM (inactive)
